Measured values taken from ChEMBL document CHEMBL1201862, “PubChem BioAssay data set” (2004).
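The compound was tested at five concentrations on cells cultured in 96-well plates, with a 48-hour exposure period. GI50: concentration for 50% inhibition of growth.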 The source made the active and inactive calls. Cut-off read from the data, not from the text of the source: active = GI50 up to about 1.1 µM and inactive = higher.

Columns and labels:
Assay in all cases: growth of human tumour cells (NCI), 48 h
ACHN = system: ACHN
DU-145 = system: DU-145
HCT-116 = system: HCT-116
Hs-578T = system: Hs-578T
K562 = system: K562
LOX IMVI = system: LOX IMVI
M14 = system: M14
MOLT-4 = system: MOLT-4
Malme-3M = system: Malme-3M
NCI-H23 = system: NCI-H23
NCI/ADR-RES = system: NCI/ADR-RES
OVCAR-3 = system: OVCAR-3
PC-3 = system: PC-3
SF-295 = system: SF-295
SK-MEL-28 = system: SK-MEL-28
SNB-19 = system: SNB-19
SNB-75 = system: SNB-75
SR = system: SR
UACC-62 = system: UACC-62
UO-31 = system: UO-31

Row | Structure (SMILES) | GI50 (ACHN) | GI50 (DU-145) | GI50 (HCT-116) | GI50 (Hs-578T) | GI50 (K562) | GI50 (LOX IMVI) | GI50 (M14) | GI50 (MOLT-4) | GI50 (Malme-3M) | GI50 (NCI-H23) | GI50 (NCI/ADR-RES) | GI50 (OVCAR-3) | GI50 (PC-3) | GI50 (SF-295) | GI50 (SK-MEL-28) | GI50 (SNB-19) | GI50 (SNB-75) | GI50 (SR) | GI50 (UACC-62) | GI50 (UO-31)
1 | C[n+]1c2ccccc2c(C(=O)Nc2ccc(S(=O)(=O)Nc3ccnn3-c3ccccc3)cc2)c2ccccc21 | > 100 µM (inactive) | > 100 µM (inactive) | > 100 µM (inactive) | > 100 µM (inactive) | > 100 µM (inactive) | > 100 µM (inactive) | > 100 µM (inactive) | > 100 µM (inactive) | > 100 µM (inactive) | > 100 µM (inactive) | 20.7 µM (inactive) | > 100 µM (inactive) | > 100 µM (inactive) | > 100 µM (inactive) | > 100 µM (inactive) | > 100 µM (inactive) | > 100 µM (inactive) | > 100 µM (inactive) | > 100 µM (inactive) | > 100 µM (inactive)
2 | Brc1ccc2[nH]cc(-c3nc(-c4c[nH]c5ccccc45)cs3)c2c1 | 2.43 µM (inactive) | 3.45 µM (inactive) | 2.53 µM (inactive) | 5.86 µM (inactive) | 2.95 µM (inactive) | 1.93 µM (inactive) | 1.74 µM (inactive) | 2.11 µM (inactive) | 3.17 µM (inactive) | 2.47 µM (inactive) | 2.79 µM (inactive) | 3.42 µM (inactive) | 3.11 µM (inactive) | 2.84 µM (inactive) | 5.81 µM (inactive) | 3.51 µM (inactive) | 10.4 µM (inactive) | 3.44 µM (inactive) | 2.37 µM (inactive) | 2.97 µM (inactive)
3 | C=C(Cl)[C@](Cl)(CBr)CC[C@@H](Br)C(C)(C)Cl [HALOMON] | 1.01 µM (active) | 1.1 µM (active) | 0.392 µM (active) | 0.611 µM (active) | 0.916 µM (active) | 17.7 µM (inactive) | 15.7 µM (inactive) | 12.8 µM (inactive) | 11.5 µM (inactive) | 11.4 µM (inactive) | 1.69 µM (inactive) | 0.791 µM (active) | 0.319 µM (active) | 1.02 µM (active) | 1.73 µM (inactive) | 1.46 µM (inactive) | 0.449 µM (active) | 7.21 µM (inactive) | 3.19 µM (inactive) | 0.959 µM (active)
4 | CC(=O)Oc1c(C)c2c(O)c3c1C1=C(OCOC1=C(C)C3=O)/C(C)=C/C(C)(O)C(O)C(C)C(O)C1C(=O)OC(C(C)C1O)C(C)(O)/C=C\C=C(C)C(=O)N2 (stereo not given) | 33.9 µM (inactive) | 45.4 µM (inactive) | 57.1 µM (inactive) | 25.7 µM (inactive) | 21.7 µM (inactive) | 27.4 µM (inactive) | 34.4 µM (inactive) | 36.1 µM (inactive) | 41.9 µM (inactive) | 50.5 µM (inactive) | 78.3 µM (inactive) | 43.3 µM (inactive) | 27.5 µM (inactive) | 38.3 µM (inactive) | 81.5 µM (inactive) | 66.8 µM (inactive) | 24 µM (inactive) | 43.3 µM (inactive) | 30.8 µM (inactive) | 11.1 µM (inactive)
